Laboratory results from patent US11439641B2, “Pyrimidine JAK inhibitors for the treatment of skin diseases” (THERAVANCE BIOPHARMA R&D IP, LLC, priority 2019, dated 2022).

Key:
[1] = Human Liver Microsome Assay; conditions: human liver microsomes 0.1 mg/mL, 0.1 μM compound, 1 mM NADPH, 37° C.
Method: Assay 4: Human Liver Microsome Assay
The objective of this assay was to assess the metabolic stability of test compounds in an in vitro human liver sub-fraction. Human liver microsomes obtained from Bioreclamation-IVT (Baltimore, Md.) were thawed on ice and diluted into 0.1 M potassium phosphate buffer pH 7.4 to yield final incubation protein concentrations of 0.1 mg/mL. Test compounds (10 mM) were diluted into NADPH cofactor to yield final incubation concentrations of 0.1 μM test compound and 1 mM NADPH. Incubations were conducted at 37° C. temperature and test aliquots were taken at time points 0, 5, 8, 15, 30 and 45 minutes. Each aliquot was crashed into water with 3% formic acid and 1 μM internal standard. The resulting samples were injected onto an LC-MS/MS system for analysis.
For each incubation, the peak area of the analytes in each t0 aliquot was set to 100% and the peak areas from subsequent time point aliquots were converted to percentage of parent compound remaining relative to t0. The percentage of parent compound remaining was converted to natural log scale and plotted versus time in minutes. A linear regression analysis was performed for the initial decline of the parent disappearance profile and a formula for the best-fit line determined. The slope of the resultant line was normalized to protein concentration in mg/mL protein or number of cells/mL and CLint was calculated as follows for liver microsomes: CLint(μL·min^−1·mg^−1)=(Slope×1000)/[protein,mg/mL]
CLint values from 9-49 μl/min/mg represent moderate clearance (i.e. 30-70% of hepatic blood flow in human) and values >50 μl/min/mg represent high hepatic clearance (i.e. >70% of hepatic blood flow in human).

[2] = Aqueous Solubility Assay; conditions: PBS buffer pH 7.4; maximum upper limit 1,000 μM
[3] = molecular target: JAK3 (Homo sapiens (Human), UniProt P52333); assay: Biochemical JAK and Tyk2 Kinase Assays (LanthaScreen), JAK3; conditions: 1.6 μM ATP (Km); pIC50 converted to pKi by Cheng-Prusoff
Chain of JAK3 (P52333 whole entry): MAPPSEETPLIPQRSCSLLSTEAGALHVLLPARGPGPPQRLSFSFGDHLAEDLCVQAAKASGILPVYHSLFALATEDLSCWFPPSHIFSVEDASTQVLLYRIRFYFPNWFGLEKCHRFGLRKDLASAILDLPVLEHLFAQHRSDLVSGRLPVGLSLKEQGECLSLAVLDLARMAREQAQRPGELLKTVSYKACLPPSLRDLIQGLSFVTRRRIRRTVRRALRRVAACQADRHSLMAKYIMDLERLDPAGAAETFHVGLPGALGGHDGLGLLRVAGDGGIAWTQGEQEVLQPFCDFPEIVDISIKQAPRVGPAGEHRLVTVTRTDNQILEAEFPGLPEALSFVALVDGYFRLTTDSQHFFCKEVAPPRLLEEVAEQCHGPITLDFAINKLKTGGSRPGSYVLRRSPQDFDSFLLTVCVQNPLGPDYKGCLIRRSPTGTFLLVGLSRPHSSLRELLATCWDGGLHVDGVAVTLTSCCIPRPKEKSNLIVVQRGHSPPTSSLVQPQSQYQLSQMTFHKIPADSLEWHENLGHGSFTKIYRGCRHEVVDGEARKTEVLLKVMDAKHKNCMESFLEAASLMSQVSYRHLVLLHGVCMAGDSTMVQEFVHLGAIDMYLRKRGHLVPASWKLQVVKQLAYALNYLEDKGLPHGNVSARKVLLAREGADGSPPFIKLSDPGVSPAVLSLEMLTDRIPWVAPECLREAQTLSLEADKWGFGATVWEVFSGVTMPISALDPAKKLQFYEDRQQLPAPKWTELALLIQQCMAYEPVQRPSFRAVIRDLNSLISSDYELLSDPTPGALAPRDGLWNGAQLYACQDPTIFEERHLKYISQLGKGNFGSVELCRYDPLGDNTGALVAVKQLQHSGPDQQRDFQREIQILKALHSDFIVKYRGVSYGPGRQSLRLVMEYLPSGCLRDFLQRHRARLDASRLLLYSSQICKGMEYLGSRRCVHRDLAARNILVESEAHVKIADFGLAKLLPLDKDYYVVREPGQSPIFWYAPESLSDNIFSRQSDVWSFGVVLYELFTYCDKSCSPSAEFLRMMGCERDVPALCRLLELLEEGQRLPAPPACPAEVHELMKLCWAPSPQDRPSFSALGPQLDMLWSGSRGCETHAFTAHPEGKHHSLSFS

[4] = tested on: Caco-2 cell monolayer; assay: Caco-2 Permeation Assay; assay type: in vitro ADME; conditions: Papp, 5 μM compound; for Cacoverap Kp 10^−6 cm/sec: A→B in the presence of 25 μM verapamil (P-gp inhibitor); for Caco Kp 10^−6 cm/sec: apical to basal (A→B)
Procedure, shortened: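 Compound at 5 μM, in duplicate, crosses Caco-2 monolayers apical to basal over 120 min at 37 °C. This is run with and without 25 μM verapamil to test for P-gp efflux. Samples are quantified by LC-MS/MS, and Papp in cm/sec is calculated as dQ/(dt × area × concentration).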

[5] = tested on: IL-2 stimulated pSTAT5 in Tall-1 T cells; assay: Inhibition of IL-2 Stimulated pSTAT5 in Tall-1 T Cells; assay type: cell-based; conditions: Tall-1 human T cell line, IL-2 300 ng/mL, AlphaLisa
Procedure, shortened: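 Cells preincubated with compound 1 hour at 37° C, then stimulated with IL-2 (final 300 ng/mL) for 30 minutes. After lysis, pSTAT5 (Tyr694/699) read by AlphaLISA luminescence. IC50 from inhibition curves, reported as pIC50 (mean±SD).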

[6] = Solubility Assay in Organic Excipients; conditions: maximum upper limit 20,000 μM; for Solubility in MCT (mg/mL): medium chain triglycerides (MCT)
[7] = molecular target: JAK1 (Homo sapiens (Human), UniProt P23458); assay: Biochemical JAK and Tyk2 Kinase Assays (LanthaScreen), JAK1; conditions: 25 μM ATP (Km); pIC50 converted to pKi by Cheng-Prusoff
Chain of JAK1 (P23458 whole entry): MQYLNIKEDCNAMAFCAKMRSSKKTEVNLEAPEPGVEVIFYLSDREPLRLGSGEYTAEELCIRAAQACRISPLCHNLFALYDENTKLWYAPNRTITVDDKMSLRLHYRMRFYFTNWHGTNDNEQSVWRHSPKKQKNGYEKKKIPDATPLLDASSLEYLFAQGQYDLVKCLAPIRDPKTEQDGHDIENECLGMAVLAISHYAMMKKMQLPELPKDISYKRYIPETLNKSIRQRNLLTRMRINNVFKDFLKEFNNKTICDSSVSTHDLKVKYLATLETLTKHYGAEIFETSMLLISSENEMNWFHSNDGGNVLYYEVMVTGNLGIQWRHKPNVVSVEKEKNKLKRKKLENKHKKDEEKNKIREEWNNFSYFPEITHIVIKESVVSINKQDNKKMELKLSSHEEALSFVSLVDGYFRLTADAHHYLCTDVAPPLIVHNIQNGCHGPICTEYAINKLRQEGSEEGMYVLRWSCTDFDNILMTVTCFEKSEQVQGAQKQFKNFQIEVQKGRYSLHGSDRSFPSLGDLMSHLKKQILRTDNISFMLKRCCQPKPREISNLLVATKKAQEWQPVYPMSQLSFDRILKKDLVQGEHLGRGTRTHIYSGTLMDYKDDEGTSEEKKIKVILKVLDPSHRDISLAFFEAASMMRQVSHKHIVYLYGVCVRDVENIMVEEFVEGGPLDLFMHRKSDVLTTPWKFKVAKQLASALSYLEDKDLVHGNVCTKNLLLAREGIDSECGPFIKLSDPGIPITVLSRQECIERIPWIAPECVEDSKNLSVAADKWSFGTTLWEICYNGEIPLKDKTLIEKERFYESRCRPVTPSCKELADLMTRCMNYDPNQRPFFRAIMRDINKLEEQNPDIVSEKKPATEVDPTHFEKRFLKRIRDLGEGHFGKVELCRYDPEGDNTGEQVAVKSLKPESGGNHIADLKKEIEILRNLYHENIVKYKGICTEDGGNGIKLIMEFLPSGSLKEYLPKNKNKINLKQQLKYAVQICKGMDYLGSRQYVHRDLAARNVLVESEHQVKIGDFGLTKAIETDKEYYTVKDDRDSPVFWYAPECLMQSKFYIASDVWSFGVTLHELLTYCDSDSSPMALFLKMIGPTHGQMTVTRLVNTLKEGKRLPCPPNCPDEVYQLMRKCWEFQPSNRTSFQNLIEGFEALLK

[8] = molecular target: JAK2 (Homo sapiens (Human), UniProt O60674); assay: Biochemical JAK and Tyk2 Kinase Assays (LanthaScreen), JAK2; conditions: 3 μM ATP (Km); pIC50 converted to pKi by Cheng-Prusoff
Chain of JAK2 (O60674 whole entry): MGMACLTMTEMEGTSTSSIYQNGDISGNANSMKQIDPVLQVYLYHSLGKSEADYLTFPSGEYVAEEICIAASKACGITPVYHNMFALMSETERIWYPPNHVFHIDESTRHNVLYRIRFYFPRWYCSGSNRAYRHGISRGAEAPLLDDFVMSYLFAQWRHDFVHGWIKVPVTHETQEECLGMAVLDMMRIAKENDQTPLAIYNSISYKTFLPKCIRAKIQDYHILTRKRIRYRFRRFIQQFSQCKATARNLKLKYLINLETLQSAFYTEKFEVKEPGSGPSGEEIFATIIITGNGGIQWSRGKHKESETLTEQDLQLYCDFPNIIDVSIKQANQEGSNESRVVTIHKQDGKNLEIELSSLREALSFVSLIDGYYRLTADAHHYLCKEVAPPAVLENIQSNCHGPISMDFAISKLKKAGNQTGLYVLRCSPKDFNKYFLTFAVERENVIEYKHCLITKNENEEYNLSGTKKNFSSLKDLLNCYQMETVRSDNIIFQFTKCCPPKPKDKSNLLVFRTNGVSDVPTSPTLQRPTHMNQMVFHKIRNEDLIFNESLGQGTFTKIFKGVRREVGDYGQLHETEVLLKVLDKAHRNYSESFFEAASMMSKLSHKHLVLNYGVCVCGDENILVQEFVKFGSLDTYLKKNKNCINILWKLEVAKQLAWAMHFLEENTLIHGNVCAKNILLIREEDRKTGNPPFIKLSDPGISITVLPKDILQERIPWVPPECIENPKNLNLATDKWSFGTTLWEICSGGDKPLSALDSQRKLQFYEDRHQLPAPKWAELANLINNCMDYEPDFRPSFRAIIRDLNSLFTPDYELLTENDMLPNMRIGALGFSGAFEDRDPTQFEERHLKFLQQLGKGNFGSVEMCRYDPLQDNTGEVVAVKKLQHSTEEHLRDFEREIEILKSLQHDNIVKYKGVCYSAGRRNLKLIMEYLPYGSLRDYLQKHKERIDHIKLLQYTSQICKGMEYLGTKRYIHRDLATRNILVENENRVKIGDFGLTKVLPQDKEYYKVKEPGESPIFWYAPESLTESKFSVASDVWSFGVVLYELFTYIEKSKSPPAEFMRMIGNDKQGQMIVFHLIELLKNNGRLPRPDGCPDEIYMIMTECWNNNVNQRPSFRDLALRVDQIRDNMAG
Method: (§1) Assay 1: Biochemical JAK and Tyk2 Kinase Assays
(§2) A panel of four LanthaScreen JAK biochemical assays (JAK1, 2, 3 and Tyk2) were carried in a common kinase reaction buffer (50 mM HEPES, pH 7.5, 0.01% Brij-35, 10 mM MgCl2, and 1 mM EGTA). Recombinant GST-tagged JAK enzymes and a GFP-tagged STAT1 peptide substrate were obtained from Life Technologies.
(§3) Serially or discretely diluted compounds were pre-incubated with each of the four JAK enzymes and the substrate in white 384-well microplates (Corning) at ambient temperature for 1 h. ATP was subsequently added to initiate the kinase reactions in 10 μL total volume, with 1% DMSO. The final enzyme concentrations for JAK1, 2, 3 and Tyk2 are 4.2 nM, 0.1 nM, 1 nM, and 0.25 nM respectively; the corresponding Km ATP concentrations used are 25 μM, 3 μM, 1.6 μM, and 10 μM; while the substrate concentration is 200 nM for all four assays. Kinase reactions were allowed to proceed for 1 hour at ambient temperature before a 10 μL preparation of EDTA (10 mM final concentration) and Tb-anti-pSTAT1 (pTyr701) antibody (Life Technologies, 2 nM final concentration) in TR-FRET dilution buffer (Life Technologies) was added. The plates were allowed to incubate at ambient temperature for 1 h before being read on the EnVision reader (Perkin Elmer). Emission ratio signals (520 nm/495 nm) were recorded and utilized to calculate the percent inhibition values based on DMSO and background controls.
(§4) For dose-response analysis, percent inhibition data were plotted vs. compound concentrations, and IC50 values were determined from a 4-parameter robust fit model with the Prism software (GraphPad Software). Results were expressed as pIC50 (negative logarithm of IC50) and subsequently converted to pKi (negative logarithm of dissociation constant, Ki) using the Cheng-Prusoff equation.

[9] = molecular target: Tyk2 (Homo sapiens (Human), UniProt P29597); assay: Biochemical JAK and Tyk2 Kinase Assays (LanthaScreen), Tyk2; conditions: 10 μM ATP (Km); pIC50 converted to pKi by Cheng-Prusoff
Chain of Tyk2 (P29597 whole entry): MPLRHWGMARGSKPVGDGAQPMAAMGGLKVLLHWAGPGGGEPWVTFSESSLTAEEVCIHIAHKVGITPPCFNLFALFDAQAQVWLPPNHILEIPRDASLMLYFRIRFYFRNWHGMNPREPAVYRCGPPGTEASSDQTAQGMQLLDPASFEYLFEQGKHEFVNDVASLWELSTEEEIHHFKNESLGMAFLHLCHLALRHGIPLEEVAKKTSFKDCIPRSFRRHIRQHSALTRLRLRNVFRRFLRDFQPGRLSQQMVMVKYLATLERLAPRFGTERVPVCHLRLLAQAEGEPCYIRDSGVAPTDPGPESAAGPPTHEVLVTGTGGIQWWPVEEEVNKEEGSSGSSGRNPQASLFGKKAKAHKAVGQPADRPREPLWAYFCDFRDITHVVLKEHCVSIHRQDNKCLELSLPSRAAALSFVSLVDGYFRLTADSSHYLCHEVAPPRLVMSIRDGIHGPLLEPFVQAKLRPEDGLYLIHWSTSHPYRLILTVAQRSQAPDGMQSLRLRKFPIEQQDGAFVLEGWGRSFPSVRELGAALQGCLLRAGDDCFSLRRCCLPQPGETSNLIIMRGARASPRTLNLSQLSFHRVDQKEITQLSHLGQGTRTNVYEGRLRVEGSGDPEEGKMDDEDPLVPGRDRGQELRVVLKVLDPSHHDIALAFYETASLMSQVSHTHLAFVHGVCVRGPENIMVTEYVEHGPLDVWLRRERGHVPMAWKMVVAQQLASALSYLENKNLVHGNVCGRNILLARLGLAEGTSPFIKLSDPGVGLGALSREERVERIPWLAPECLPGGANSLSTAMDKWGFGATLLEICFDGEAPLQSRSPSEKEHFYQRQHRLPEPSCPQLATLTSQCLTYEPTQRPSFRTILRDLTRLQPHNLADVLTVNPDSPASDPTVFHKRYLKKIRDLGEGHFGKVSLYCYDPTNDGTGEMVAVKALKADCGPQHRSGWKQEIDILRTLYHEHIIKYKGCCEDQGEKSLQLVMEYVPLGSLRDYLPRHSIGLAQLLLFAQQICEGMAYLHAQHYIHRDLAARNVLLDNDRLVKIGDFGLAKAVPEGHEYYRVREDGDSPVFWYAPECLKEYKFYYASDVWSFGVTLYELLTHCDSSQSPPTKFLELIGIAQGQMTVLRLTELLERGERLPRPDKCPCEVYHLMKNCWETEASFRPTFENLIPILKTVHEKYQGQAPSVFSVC
Method: as §1, §2, §3, §4

| SMILES | HLM Clin μL/min/mg [1] | Solubility at PH 7.4 (μmol) [2] | JAK 3 (pKi) [3] | Cacoverap Kp 10^−6 cm/sec [4] | Caco Kp 10^−6 cm/sec [4] | Tall-1 IL2 pSTAT5 (pIC50) [5] | Solubility in PEG400 (mg/mL) [6] | Solubility in Diisopropyl adipate (mg/mL) [6] | Solubility in MCT (mg/mL) [6] | Solubility in Propylene glycol (mg/mL) [6] | JAK 1 (pKi) [7] | JAK 2 (pKi) [8] | Tyk 2 (pKi) [9] |
| --- | --- | --- | --- | --- | --- | --- | --- | --- | --- | --- | --- | --- | --- |
| CCS(=O)(=O)N1[C@@H]2CCC[C@H]1C[C@H](N(C)c1nc(Nc3cc(C)[nH]n3)cc(C3CCOC3)n1)C2 (stereo partly drawn) [Compound 5, N^2-((1R,3s,5S)-9-(ethylsulfonyl)-9-azabicyclo[3.3.1]nonan-3-yl)-N2-methyl-N4-(5-methyl-1H-pyrazol-3-yl)-6-(tetrahydrofuran-3-yl)pyrimidine-2,4-diamine] | A (A represents a Clint value between 1250 and 3000) | E (E represents a value below 10) | B (B represents a pKi value between 9 and 10 (Ki between 1 nM and 0.1 nM)) | A (A represents a value above 35×10^−6 cm/sec) | A (A represents a value above 30×10^−6 cm/sec) | A (A represents a pIC50 value ≥8.0) | A (A represents a value above 10) | B (B represents a value between 5 and 10) | C (C represents a value below 5) | A (A represents a value above 10) | A (A represents a pKi value ≥10 (Ki≤0.1 nM)) | – | – |
| CCS(=O)(=O)N1[C@@H]2CCC[C@H]1C[C@H](N(C)c1nc(Nc3cc(C)[nH]n3)cc([C@H]3CCCO3)n1)C2 [Compound 9] | A (A represents a Clint value between 1250 and 3000) | C (C represents a value between 50 and 250) | B (B represents a pKi value between 9 and 10 (Ki between 1 nM and 0.1 nM)) | A (A represents a value above 35×10^−6 cm/sec) | A (A represents a value above 30×10^−6 cm/sec) | A (A represents a pIC50 value ≥8.0) | – | – | – | – | A (A represents a pKi value ≥10 (Ki≤0.1 nM)) | A (A represents a pKi value ≥10 (Ki≤0.1 nM)) | A (A represents a pKi value ≥10 (Ki≤0.1 nM)) |
| COC(=O)N1[C@@H]2CCC[C@H]1C[C@H](N(C)c1nc(Nc3cc(C)[nH]n3)cc(C3CCCO3)n1)C2 (stereo partly drawn) [Compound 11, methyl (1R,3s,5S)-3-(methyl(4-((5-methyl-1H-pyrazol-3-yl)amino)-6-(tetrahydrofuran-2-yl)pyrimidin-2-yl)amino)-9-azabicyclo[3.3.1]nonane-9-carboxylate] | – | C (C represents a value between 50 and 250) | C (C represents a pKi value between 8 and 9 (Ki between 10 nM and 1 nM)) | B (B represents a value between 20×10^−6 and 35×10^−6 cm/sec) | B (B represents a value between 15×10^−6 and 30×10^−6 cm/sec) | A (A represents a pIC50 value ≥8.0) | A (A represents a value above 10) | A (A represents a value above 10) | B (B represents a value between 5 and 10) | A (A represents a value above 10) | A (A represents a pKi value ≥10 (Ki≤0.1 nM)) | B (B represents a pKi value between 9 and 10 (Ki between 1 nM and 0.1 nM)) | B (B represents a pKi value between 9 and 10 (Ki between 1 nM and 0.1 nM)) |
